Values after ≈ are worked out from the molar mass of the structure shown.
Assays:
[1] = test system: Campylobacter spp. (12 strains); test: Activity spectrum against Campylobacter strains at 6.25 μg/mL with 0.5 mM CuSO4; type: cell-based, Campylobacter jejuni, Campylobacter coli; conditions: 6.25 μg/mL SM
[2] = test system: Commensal/beneficial gut bacteria (n = 7); test: Activity spectrum against commensal/beneficial gut bacteria at 6.25 μg/mL; type: cell-based; conditions: 6.25 μg/mL SM; for Commensal/beneficial gut bacteria inhibited at 6.25 μg/mL (species): Ef Enterococcus faecalis, Lb Levilactobacillus brevis, LGG Lacticaseibacillus rhamnosus GG
Method: A similar experiment was performed with seven commensal/beneficial gut bacteria to determine species specificity of these SMs. In brief, an overnight suspension was normalized at 0.05 OD600 using the appropriate medium and challenged with 6.25 μg/mL of SM. Details about the strains and their growing conditions are shown in Supplementary Table S1. Medium alone and 1% DMSO were used as controls (N = 3 replicates per SM).

C. jejuni 81–176 = test: Copper sulfate sensitivity dose–response assay in vitro (MIC/MBC); type: cell-based, Campylobacter jejuni; conditions: for MBC / MIC: Campylobacter jejuni, 0.5 mM CuSO4, head displaced; for MBC: read-out: MBC, C. jejuni (Table S5); for MIC: read-out: MIC, C. jejuni (Table S4); for C. jejuni 81–176 in vitro MBC: minimal bactericidal concentration in presence of 0.5 mM CuSO4; for C. jejuni 81–176 in vitro MIC: minimal bacteriostatic concentration in presence of 0.5 mM CuSO4
Method: (§1) In total, 19 SMs were two-fold serially diluted to obtain a final SM concentration ranging from 6.25 to 0.012 μg/mL. C. jejuni 81–176 was then treated with a determined concentration of SM, as described in the copper sensitivity assay. […] The lowest bactericidal SM concentration was considered the MBC (no increase in OD600 over time and no viable cells were recovered on agar plate after challenge) (N = 3 replicates per SM). […] However, these SMs were two-fold serially diluted to obtain a final SM concentration ranging from 5 μg to 0.0625 μg for testing (N = two independent experiments with four technical replicate for each SM).

[3] = test system: intracellular C. jejuni 81–176 in Caco-2 cells; test: Copper sulfate sensitivity dose–response assay in infected Caco-2 colon epithelial cells; type: cell-based, Campylobacter jejuni; conditions: infected Caco-2 cells, 24 h, 0.5 mM CuSO4
Method: The intracellular reduction in C. jejuni in the presence of a given SM (T1-T8) and 0.5 mM CuSO4 were evaluated using Caco-2 cells, as previously described ([Kumar et al., 2016]; [Deblais et al., 2019]). In brief, cells were infected for 2 h using a multiplicity of infection (MOI) of 100. Infected cells were treated with SM at a final concentration ranging between 5 and 0.315 μg/mL and incubated at 37°C for 24 h in a humidified 5% CO2 incubator. Following incubation, cells were washed once with 1X PBS, lysed with 0.1% Triton-100X, serially 10-fold diluted in 1X PBS, and plated on MH agar plate. Plates were incubated in microaerophilic conditions at 42°C for 24 h, to determine the intracellular survival. Cells not infected and not treated and cells infected and treated with 1% DMSO were used as controls (N = two independent experiments with four technical replicate for each SM).

C. jejuni Au-50 = test: Copper sulfate sensitivity dose–response assay in vitro (MIC/MBC); type: cell-based; conditions: Campylobacter jejuni; for MIC: AU50, read-out: MIC, Au-50 (Table S4); for MBC: AU50, 0.5 mM CuSO4, read-out: MBC, Au-50 (Table S5)
Method: (§2) Campylobacter jejuni 81–176 was the primary model strain used for the selection of the potential Tat-dependent inhibitors by high-throughput screening. C. jejuni 81–176 is resistant to 0.5 and 1 mM CuSO4 (Supplementary Figure S1). C. jejuni 81–176 tatC knockout mutant (C. jejuni ΔtatC) was used to confirm the Tat-dependent inhibitory effect of the selected SM. C. jejuni ΔtatC is susceptible to 0.5 mM and higher of CuSO4 ([Rajashekara et al., 2009]). The specificity of the Tat-dependent inhibitors was also tested on 11 additional Campylobacter strains (C. coli ATCC33559 and 10 other C. jejuni strains isolated from chickens) and 7 commensal/beneficial bacteria (Supplementary Table S1). The […] (Au-13, Au-20, Au-38, Au-39, Au-47, Au-50, Au-24, Au-32, Au-44, and Au-45) were selected based on their single nucleotide polymorphism (SNP)-type and percent of prevalence in chickens ([Merchant-Patel et al., 2008]; [Kumar et al., 2016]). Additional details about the bacterial strains are shown in Supplementary Table S1.
as §1

C. jejuni Au-24 = test: as above; type: cell-based; conditions: Campylobacter jejuni; for MIC: AU24, read-out: MIC, Au-24 (Table S4); for MBC: AU24, 0.5 mM CuSO4, read-out: MBC, Au-24 (Table S5)
Method: as §2, §1

C. jejuni Au-39 = test: as above; type: cell-based; conditions: Campylobacter jejuni; for MIC: AU39, read-out: MIC, Au-39 (Table S4); for MBC: AU39, 0.5 mM CuSO4, read-out: MBC, Au-39 (Table S5)
Method: as §2, §1

C. coli ATCC33559 = test: as above; type: cell-based; conditions: Campylobacter coli; for MIC: ATCC33559, read-out: MIC, C. coli (Table S4); for MBC: ATCC33559, 0.5 mM CuSO4, read-out: MBC, C. coli (Table S5)
Method: as §2, §1

C. jejuni Au-13 = test: as above; type: cell-based; conditions: Campylobacter jejuni; for MIC: AU13, read-out: MIC, Au-13 (Table S4); for MBC: AU13, 0.5 mM CuSO4, read-out: MBC, Au-13 (Table S5)
Method: as §2, §1

C. jejuni Au-44 = test: as above; type: cell-based; conditions: Campylobacter jejuni; for MIC: AU44, read-out: MIC, Au-44 (Table S4); for MBC: AU44, 0.5 mM CuSO4, read-out: MBC, Au-44 (Table S5)
Method: as §2, §1

C. jejuni Au-20 = test: as above; type: cell-based; conditions: Campylobacter jejuni; for MIC: AU20, read-out: MIC, Au-20 (Table S4); for MBC: AU20, 0.5 mM CuSO4, read-out: MBC, Au-20 (Table S5)
Method: as §2, §1

C. jejuni Au-38 = test: as above; type: cell-based; conditions: Campylobacter jejuni; for MIC: AU38, read-out: MIC, Au-38 (Table S4); for MBC: AU38, 0.5 mM CuSO4, read-out: MBC, Au-38 (Table S5)
Method: as §2, §1

C. jejuni Au-32 = test: as above; type: cell-based; conditions: Campylobacter jejuni; for MIC: AU32, read-out: MIC, Au-32 (Table S4); for MBC: AU32, 0.5 mM CuSO4, read-out: MBC, Au-32 (Table S5)
Method: as §2, §1

C. jejuni Au-47 = test: as above; type: cell-based; conditions: Campylobacter jejuni; for MIC: AU47, read-out: MIC, Au-47 (Table S4); for MBC: AU47, 0.5 mM CuSO4, read-out: MBC, Au-47 (Table S5)
Method: as §2, §1

C. jejuni Au-45 = test: as above; type: cell-based; conditions: Campylobacter jejuni; for MIC: AU45, read-out: MIC, Au-45 (Table S4); for MBC: AU45, 0.5 mM CuSO4, read-out: MBC, Au-45 (Table S5)
Method: as §2, §1

FDH = conditions: 1 mM of azide; ref Davies, 2017; cited from earlier work

Structure (SMILES) | Growth inhibition at 6.25 μg/mL, Campylobacter spp. (strains inhibited/tested) [1] | Growth inhibition at 6.25 μg/mL, Commensal/beneficial gut bacteria (strains inhibited/tested) [2] | MBC (C. jejuni 81–176) [µg/mL] | MIC (C. jejuni 81–176) [µg/mL] | C. jejuni 81–176 in vitro MBC (C. jejuni 81–176) [µg/mL] | C. jejuni 81–176 in vitro MIC (C. jejuni 81–176) [µg/mL] | MIC (C. jejuni Au-50) [µg/mL] | MBC (C. jejuni Au-50) [µg/mL] | MIC (C. jejuni Au-24) [µg/mL] | MBC (C. jejuni Au-24) [µg/mL] | MIC (C. jejuni Au-39) [µg/mL] | MBC (C. jejuni Au-39) [µg/mL] | MIC (C. coli ATCC33559) [µg/mL] | MBC (C. coli ATCC33559) [µg/mL] | MIC (C. jejuni Au-13) [µg/mL] | MBC (C. jejuni Au-13) [µg/mL] | MIC (C. jejuni Au-44) [µg/mL] | MBC (C. jejuni Au-44) [µg/mL] | MIC (C. jejuni Au-20) [µg/mL] | MBC (C. jejuni Au-20) [µg/mL] | further results
CN(C)c1ccc(C(=O)Nc2ccc(CN3CCS(=O)(=O)CC3)cc2)cc1 [T3] | 12/12 | 2/7 | > 5 | 0.04 (≈ 0.103 µM) | >5 | 0.04 | 6.25 (≈ 16.1 µM) | > 5 | 6.25 (≈ 16.1 µM) | > 5 | 6.25 (≈ 16.1 µM) | > 5 | 1 (≈ 2.58 µM) | > 5 | 6.25 (≈ 16.1 µM) | > 5 | 6.25 (≈ 16.1 µM) | > 5 | 6.25 (≈ 16.1 µM) | > 5 | Commensal/beneficial gut bacteria inhibited at 6.25 μg/mL (species) [2]: LGG and Ef; C. jejuni 81–176 MBC in Caco2 cells [3]: 5 µg/mL; MIC (C. jejuni Au-38): 6.25 µg/mL (≈ 16.1 µM); MBC (C. jejuni Au-38): > 5 µg/mL; MIC (C. jejuni Au-32): 6.25 µg/mL (≈ 16.1 µM); MBC (C. jejuni Au-32): > 5 µg/mL; MIC (C. jejuni Au-47): 6.25 µg/mL (≈ 16.1 µM); MBC (C. jejuni Au-47): > 5 µg/mL; MIC (C. jejuni Au-45): 6.25 µg/mL (≈ 16.1 µM); MBC (C. jejuni Au-45): > 5 µg/mL
CC(C)n1c(S)nc2c1c(=O)[nH]c(=O)n2C [T6] | 12/12 | 0/7 | 2.5 (≈ 10.4 µM) | 1.25 (≈ 5.2 µM) | 2.5 | 1.25 | 1.25 (≈ 5.2 µM) | 2.5 (≈ 10.4 µM) | 1.25 (≈ 5.2 µM) | 2.5 (≈ 10.4 µM) | 1.25 (≈ 5.2 µM) | 2.5 (≈ 10.4 µM) | 1.25 (≈ 5.2 µM) | 2.5 (≈ 10.4 µM) | 1.25 (≈ 5.2 µM) | 2.5 (≈ 10.4 µM) | 1.25 (≈ 5.2 µM) | 2.5 (≈ 10.4 µM) | 1.25 (≈ 5.2 µM) | 2.5 (≈ 10.4 µM) | MIC (C. jejuni Au-38): 1.25 µg/mL (≈ 5.2 µM); MBC (C. jejuni Au-38): 2.5 µg/mL (≈ 10.4 µM); MIC (C. jejuni Au-32): 1.25 µg/mL (≈ 5.2 µM); MBC (C. jejuni Au-32): 2.5 µg/mL (≈ 10.4 µM); MIC (C. jejuni Au-47): 1.25 µg/mL (≈ 5.2 µM); MBC (C. jejuni Au-47): 2.5 µg/mL (≈ 10.4 µM); MIC (C. jejuni Au-45): 1.25 µg/mL (≈ 5.2 µM); MBC (C. jejuni Au-45): 2.5 µg/mL (≈ 10.4 µM)
[N-]=[N+]=[N-] [azide] | – | – | – | – | – | – | – | – | – | – | – | – | – | – | – | – | – | – | – | – | inhibition of FDH activity (FDH): 30%
CCc1ccnc(NS(=O)(=O)c2ccc(C)c(Cl)c2)c1 [T4] | 12/12 | 1/7 | > 5 | 0.01 (≈ 0.0322 µM) | >5 | 0.01 | 0.31 (≈ 0.997 µM) | > 5 | 6.25 (≈ 20.1 µM) | > 5 | 6.25 (≈ 20.1 µM) | > 5 | 6.25 (≈ 20.1 µM) | > 5 | 0.62 (≈ 1.99 µM) | > 5 | 6.25 (≈ 20.1 µM) | > 5 | 0.62 (≈ 1.99 µM) | > 5 | Commensal/beneficial gut bacteria inhibited at 6.25 μg/mL (species) [2]: Ef; MIC (C. jejuni Au-38): 6.25 µg/mL (≈ 20.1 µM); MBC (C. jejuni Au-38): > 5 µg/mL; MIC (C. jejuni Au-32): 6.25 µg/mL (≈ 20.1 µM); MBC (C. jejuni Au-32): > 5 µg/mL; MIC (C. jejuni Au-47): 0.62 µg/mL (≈ 1.99 µM); MBC (C. jejuni Au-47): > 5 µg/mL; MIC (C. jejuni Au-45): 6.25 µg/mL (≈ 20.1 µM); MBC (C. jejuni Au-45): > 5 µg/mL
CCOC(=O)C1CCN(CC(=O)Nc2cccc3cccnc23)CC1 [T5] | 12/12 | 1/7 | 0.04 (≈ 0.117 µM) | 0.01 (≈ 0.0293 µM) | 0.04 | 0.01 | 5 (≈ 14.6 µM) | > 5 | 2.5 (≈ 7.32 µM) | 5 (≈ 14.6 µM) | 5 (≈ 14.6 µM) | > 5 | 0.02 (≈ 0.0586 µM) | 0.04 (≈ 0.117 µM) | 0.62 (≈ 1.82 µM) | 1.24 (≈ 3.63 µM) | 2.5 (≈ 7.32 µM) | 5 (≈ 14.6 µM) | 2.5 (≈ 7.32 µM) | 5 (≈ 14.6 µM) | Commensal/beneficial gut bacteria inhibited at 6.25 μg/mL (species) [2]: Ef; MIC (C. jejuni Au-38): 2.5 µg/mL (≈ 7.32 µM); MBC (C. jejuni Au-38): 5 µg/mL (≈ 14.6 µM); MIC (C. jejuni Au-32): 5 µg/mL (≈ 14.6 µM); MBC (C. jejuni Au-32): > 5 µg/mL; MIC (C. jejuni Au-47): 2.5 µg/mL (≈ 7.32 µM); MBC (C. jejuni Au-47): 5 µg/mL (≈ 14.6 µM); MIC (C. jejuni Au-45): 5 µg/mL (≈ 14.6 µM); MBC (C. jejuni Au-45): > 5 µg/mL
